Assay results reported in PubChem BioAssay AID1259407 (Chemical Carcinogenesis Research Information System (CCRIS), 2018).
Active and inactive are the calls of the source. No rule for the calls is given here.

Tested on: CCRIS mutagenicity, Ames/micronucleus/aberration tests
Assay: CCRIS mutagenicity studies
[1] = Test System: AMES SALMONELLA TYPHIMURIUM, Strain/Indicator: TA98, Metabolic Activation: NONE, Method: STANDARD PLATE
[2] = Test System: AMES SALMONELLA TYPHIMURIUM, Strain/Indicator: TA98, Metabolic Activation: RAT, LIVER, S-9, AROCLOR 1254, Method: STANDARD PLATE
[3] = Test System: AMES SALMONELLA TYPHIMURIUM, Strain/Indicator: TA100, Metabolic Activation: NONE, Method: STANDARD PLATE
[4] = Test System: AMES SALMONELLA TYPHIMURIUM, Strain/Indicator: TA100, Metabolic Activation: RAT, LIVER, S-9, AROCLOR 1254, Method: STANDARD PLATE
[5] = Test System: AMES SALMONELLA TYPHIMURIUM, Strain/Indicator: TA1535, Metabolic Activation: NONE, Method: STANDARD PLATE
[6] = Test System: AMES SALMONELLA TYPHIMURIUM, Strain/Indicator: TA1538, Metabolic Activation: NONE, Method: STANDARD PLATE
[7] = Test System: AMES SALMONELLA TYPHIMURIUM, Strain/Indicator: TA1538, Metabolic Activation: RAT, LIVER, S-9, AROCLOR 1254, Method: STANDARD PLATE

`CCCCOCCOCCOCc1cc2c(cc1CCC)OCO2` was tested, and the mutagenic call (End Point: IN VITRO CHROMOSOMAL ABERRATIONS, Test System: CHINESE HAMSTER OVARY CELLS, Metabolic Activation: NONE) was “inactive; negative; precipitation occurred at 287 ug/ml”, the mutagenic call (End Point: IN VITRO CHROMOSOMAL ABERRATIONS, Test System: CHINESE HAMSTER OVARY CELLS, Metabolic Activation: RAT, LIVER, S-9, AROCLOR 1254) was “inactive; negative; precipitation occurred at 496 ug/ml” and the mutagenic call (Test System: AMES SALMONELLA TYPHIMURIUM, Strain/Indicator: TA97, Metabolic Activation: NONE, Method: PREINCUBATION) was “inactive; negative”. For the same molecule, the mutagenic call (Test System: AMES SALMONELLA TYPHIMURIUM, Strain/Indicator: TA97, Metabolic Activation: RAT, LIVER, S-9, AROCLOR 1254, Method: PREINCUBATION) was “inactive; negative”, the mutagenic call [1] was “inactive; negative” and the mutagenic call [2] was “inactive; negative”. The mutagenic call [3] was “inactive; negative”, the mutagenic call [4] was “inactive; negative” and the mutagenic call (Test System: AMES SALMONELLA TYPHIMURIUM, Strain/Indicator: TA102, Metabolic Activation: NONE, Method: PREINCUBATION) was “inactive; negative”. The mutagenic call (Test System: AMES SALMONELLA TYPHIMURIUM, Strain/Indicator: TA102, Metabolic Activation: RAT, LIVER, S-9, AROCLOR 1254, Method: PREINCUBATION) was “inactive; negative”, the mutagenic call [5] was “inactive; negative” and the mutagenic call (Test System: AMES SALMONELLA TYPHIMURIUM, Strain/Indicator: TA1535, Metabolic Activation: RAT, LIVER, S-9, AROCLOR 1254, Method: STANDARD PLATE) was “inactive; negative”. The mutagenic call (Test System: AMES SALMONELLA TYPHIMURIUM, Strain/Indicator: TA1537, Metabolic Activation: NONE, Method: STANDARD PLATE) was “inactive; negative”, the mutagenic call (Test System: AMES SALMONELLA TYPHIMURIUM, Strain/Indicator: TA1537, Metabolic Activation: RAT, LIVER, S-9, AROCLOR 1254, Method: STANDARD PLATE) was “inactive; negative” and the mutagenic call [6] was “inactive; negative”. The mutagenic call [7] was “inactive; negative”, the mutagenic call (Test System: CHINESE HAMSTER OVARY, Strain/Indicator: CHO-K1-BH4 (HGPRT)/6-THIOGUANINE, Metabolic Activation: NONE) was “inactive; negative” and the mutagenic call (Test System: CHINESE HAMSTER OVARY, Strain/Indicator: CHO-K1-BH4 (HGPRT)/6-THIOGUANINE, Metabolic Activation: RAT, LIVER, S-9, AROCLOR 1254) was “inactive; negative”. For the same molecule, the mutagenic call (Test System: UDS HUMAN HEPATOCYTES, Strain/Indicator: THY INCORP, Metabolic Activation: NONE, Method: AUTORADIOGRAPHY) was “inactive; negative” and the mutagenic call (Test System: UDS RAT HEPATOCYTES, Strain/Indicator: THY INCORP, Metabolic Activation: NONE, Method: AUTORADIOGRAPHY) was “inactive; negative”.

`O=CC(Cl)=C(Cl)Cl` was tested, and the mutagenic call [1] was “active; positive” and the mutagenic call [3] was “active; positive”.

In the case of `CN(Cc1ccc(Cl)cc1)N=O`, the mutagenic call (Test System: AMES SALMONELLA TYPHIMURIUM, Strain/Indicator: TA1535, Metabolic Activation: HAMSTER, LIVER, S-9, AROCLOR 1254, Method: STANDARD PLATE) was “active; positive” and the mutagenic call [5] was “inactive; negative”.

In the case of `c1ccc2c(c1)-c1cc3c(cc1C1NC21)-c1ccccc1C1NC31` (stereo not given), the mutagenic call [3] was “active; positive”.

With `CCOC(=O)Nc1cccc2c1CN(C)CC2c1ccc(Cl)cc1` (stereo not given) the mutagenic call (Test System: AMES SALMONELLA TYPHIMURIUM, Strain/Indicator: TA98, Metabolic Activation: NONE) was “inactive; negative”, the mutagenic call (Test System: AMES SALMONELLA TYPHIMURIUM, Strain/Indicator: TA98, Metabolic Activation: S-9) was “inactive; negative” and the mutagenic call (Test System: AMES SALMONELLA TYPHIMURIUM, Strain/Indicator: TA100, Metabolic Activation: NONE) was “inactive; negative”. The mutagenic call (Test System: AMES SALMONELLA TYPHIMURIUM, Strain/Indicator: TA100, Metabolic Activation: S-9) was “inactive; negative”, the mutagenic call (Test System: AMES SALMONELLA TYPHIMURIUM, Strain/Indicator: TA1535, Metabolic Activation: NONE) was “inactive; negative” and the mutagenic call (Test System: AMES SALMONELLA TYPHIMURIUM, Strain/Indicator: TA1535, Metabolic Activation: S-9) was “inactive; negative”. The mutagenic call (Test System: AMES SALMONELLA TYPHIMURIUM, Strain/Indicator: TA1537, Metabolic Activation: NONE) was “inactive; negative”, the mutagenic call (Test System: AMES SALMONELLA TYPHIMURIUM, Strain/Indicator: TA1537, Metabolic Activation: S-9) was “inactive; negative” and the mutagenic call (Test System: AMES SALMONELLA TYPHIMURIUM, Strain/Indicator: TA1538, Metabolic Activation: NONE) was “inactive; negative”. For the same molecule, the mutagenic call (Test System: AMES SALMONELLA TYPHIMURIUM, Strain/Indicator: TA1538, Metabolic Activation: S-9) was “inactive; negative”.

For `Nc1ccn([C@@H]2O[C@H](CO)[C@@H](O)[C@@H]2O)c(=O)n1`, the mutagenic call (Test System: AMES SALMONELLA TYPHIMURIUM, Strain/Indicator: TA98, Metabolic Activation: HAMSTER, LIVER, S-9, AROCLOR 1254 (10%), Method: PREINCUBATION) was “inactive; negative”, the mutagenic call (Test System: AMES SALMONELLA TYPHIMURIUM, Strain/Indicator: TA98, Metabolic Activation: NONE, Method: PREINCUBATION) was “inactive; negative” and the mutagenic call (Test System: AMES SALMONELLA TYPHIMURIUM, Strain/Indicator: TA98, Metabolic Activation: RAT, LIVER, S-9, AROCLOR 1254 (10%), Method: PREINCUBATION) was “inactive; negative”. The mutagenic call (Test System: AMES SALMONELLA TYPHIMURIUM, Strain/Indicator: TA100, Metabolic Activation: HAMSTER, LIVER, S-9, AROCLOR 1254 (10%), Method: PREINCUBATION) was “inactive; negative”, the mutagenic call (Test System: AMES SALMONELLA TYPHIMURIUM, Strain/Indicator: TA100, Metabolic Activation: NONE, Method: PREINCUBATION) was “inactive; negative” and the mutagenic call (Test System: AMES SALMONELLA TYPHIMURIUM, Strain/Indicator: TA100, Metabolic Activation: RAT, LIVER, S-9, AROCLOR 1254 (10%), Method: PREINCUBATION) was “inactive; negative”. For the same molecule, the mutagenic call (Test System: AMES SALMONELLA TYPHIMURIUM, Strain/Indicator: TA1535, Metabolic Activation: HAMSTER, LIVER, S-9, AROCLOR 1254 (10%), Method: PREINCUBATION) was “inactive; negative”, the mutagenic call (Test System: AMES SALMONELLA TYPHIMURIUM, Strain/Indicator: TA1535, Metabolic Activation: NONE, Method: PREINCUBATION) was “inactive; negative” and the mutagenic call (Test System: AMES SALMONELLA TYPHIMURIUM, Strain/Indicator: TA1535, Metabolic Activation: RAT, LIVER, S-9, AROCLOR 1254 (10%), Method: PREINCUBATION) was “inactive; negative”. For the same molecule, the mutagenic call (Test System: AMES SALMONELLA TYPHIMURIUM, Strain/Indicator: TA1537, Metabolic Activation: HAMSTER, LIVER, S-9, AROCLOR 1254 (10%), Method: PREINCUBATION) was “inactive; negative”, the mutagenic call (Test System: AMES SALMONELLA TYPHIMURIUM, Strain/Indicator: TA1537, Metabolic Activation: NONE, Method: PREINCUBATION) was “inactive; negative” and the mutagenic call (Test System: AMES SALMONELLA TYPHIMURIUM, Strain/Indicator: TA1537, Metabolic Activation: RAT, LIVER, S-9, AROCLOR 1254 (10%), Method: PREINCUBATION) was “inactive; negative”.

With `CC(C)(C)NC[C@@H](O)COc1ccccc1C1CCCC1` the mutagenic call [1] was “active; positive” and the mutagenic call [2] was “active; positive”.

In the case of `NC(=O)CCC(=O)Nc1ccc(Cl)c(Cl)c1Cl`, the mutagenic call [1] was “inactive; negative”, the mutagenic call [2] was “inactive; negative” and the mutagenic call [3] was “inactive; negative”. The mutagenic call [4] was “inactive; negative”.

In the case of `CC(O)c1ccc2ccc3cccc4ccc1c2c34` (stereo not given), the mutagenic call (Test System: AMES SALMONELLA TYPHIMURIUM, Strain/Indicator: TA98, Metabolic Activation: HUMAN, LIVER, CYTOSOL, PAPS, Method: PREINCUBATION) was “active; positive”.

With `CCCCOc1cc(N=Nc2ccc(NCCO)cc2NCCO)ccc1N=Nc1c(S(=O)(=O)O)cc2ccc(N)cc2c1O` the mutagenic call [1] was “inactive; negative”, the mutagenic call [2] was “active; positive” and the mutagenic call [3] was “inactive; negative”. The mutagenic call [4] was “inactive; negative”, the mutagenic call [6] was “inactive; negative” and the mutagenic call [7] was “active; positive”.
